Read-outs that look alike come from different tables or passages of the source.
Assays:
[1] = system: mouse allogenic mixed lymphocyte reaction (BALB/c responder, C57BL/6 stimulator spleen cells); test: mouse allogenic mixed lymphocyte reaction (MLR), blastogenesis by 3H-thymidine uptake; format: cell-based; settings: for inhibition at 0.001 µg/mL / inhibition at 0.01 µg/mL / inhibition at 0.1 µg/mL: Mus musculus, Lymphocyte, read-out: Suppression
Experimental: The immunosuppressive activity of the compounds (I) and their lactones was assayed by using mouse allogenic mixed lymphocyte reaction (hereinafter sometimes abbreviated as MLR). Mouse allogenic MLR was carried out by mixed culture of the BALB/c mouse (H-2^d) spleen cells as the responder cells and the mitomycin C-treated C57BL/6 (H-2^b) spleen cells as the stimulator cells in equal amounts.
The responder cells were prepared as follows: The spleen was resected from 5- to 6-week-old male BALB/c mice, and single cell suspension of spleen cells was prepared by using the RPMI1640 culture medium (containing 60 μg/ml of kanamycin sulfate, 2 mM of L-glutamine, 10 mM of N-2-hydroxyethylpiperazine-N'-2-ethanesulfonate (HEPES) and 0.1% sodium hydrogencarbonate) to which heat-inactivated fetal calf serum (hereinaftersometimes abbreviated as FCS) had been added to 5%. After hemolytic treatment, the cell suspension was adjusted to a concentration of 10^7 cells/ml by using the RPMI1640 culture medium supplemented with 10^-4 M 2-mercaptoethanol and 20% FCS, and was used as the responder cell suspension.
The stimulator cells were prepared as follows:
The spleen was resected from 5- to 6-week-old male C57BL/6 mice, and single cell suspension of spleen cells was prepared by using the RPMI1640 culture medium. After hemolytic treatment, the cells were treated with 40 μg/ml of mitomycin C at 37° C. for 60 minutes. After washing three times, the concentration of the cell suspension was adjusted to 10^7 cells/ ml by using the RPMI1640 culture medium supplemented with 10^-4 M 2-mercaptoethanol and 20% FCS, and was used as the stimulator cell suspension.
Fifty μl of the responder cell suspension, 50μl of the stimulator cell suspension prepared by the above method, and 100 μl of the test substance were placed in 96-well microculture plates, and were cultured at 37° C. in an atmosphere of 5% carbon dioxide for 4 days.
The blastogenesis of lymphocytes was assayed by a method of ^3 H-thymidine uptake as an index. That is, after termination of the culture, 0.5 μCi/well of ^3 H-thymidine was added and cultured for 4 hours. Cells were harvested by a cell-harvester, and the radioactivity incorporated into the cells was determined by a liquid scintillation counter to obtain the index of blastogenesis of lymphocytes in the mouse allogenic MLR. The suppression of the mouse allogenic MLR was evaluated by calculating the percent suppression by the following formula. [formula]
The test substance was dissolved in methanol or suspended in a mixture of methanol and acetic acid, and then diluted with the RPMI1640 culture medium.

[2] = cytotoxicity to tumor cell line MOLT4; format: cell-based, human; settings: human, molt4 cells, read-out: Suppression
Experimental: (§1) Cytotoxicity to human tumor cell lines was examined as follows:
(§2) Cells of human cell lines, K562, MOLT4, U937, HL60, KATOIII, KB, PC-6, PC-14 and CCRF-CEM were separately suspended to the concentration of 2×10^5 cells/ml in the RPMI1640 culture medium supplemented with 20% FCS. Fifty μl of this suspension was added to each well of 96-well microculture plates to which 50 μl of the test solution had been added. After culturing at 37° C. in an atmosphere of 5% carbon dioxide for 72 hours, the absorbancy at 550 nm was measured in the same way as the colorimetry using MTT in Experimental Example 1, and the percent suppression was calculated in the same manner as in Experimental Example 14, which was used as the index of cytotoxicity.

[3] = system: MOLT4; test: cytotoxicity to tumor cell line MOLT4; format: cell-based, human
Experimental: as §1, §2

[4] = system: HL60; test: in vitro; format: cell-based, human
Experimental: as §1, §2

[5] = system: PC-14; test: in vitro; format: cell-based, human
Experimental: as §1, §2

[6] = system: KB; test: in vitro; format: cell-based, human
Experimental: as §1, §2

[7] = system: K562; test: in vitro; format: cell-based, human
Experimental: as §1, §2

[8] = system: CCRF-CEM; test: in vitro; format: cell-based, human
Experimental: as §1, §2

[9] = in vitro; format: cell-based, human; settings: human, read-out: Suppression
Experimental: as §1, §2

[10] = system: U937; test: in vitro; format: cell-based, human
Experimental: as §1, §2

[11] = system: mouse L929 cells; test: cytotoxicity to mouse L929 cells; format: cell-based; settings: 550 nm
Experimental: (§3) Cytotoxicity to mouse L929 cells was assayed as follows:
(§4) L929 cells were suspended to the concentration of 1.5×10^5 cells/ml in the F12 culture medium supplemented with 10% FCS. One hundred μl of the suspension was added to each well of 96-well microculture plates, and cultured at 37° C. in an atmosphere of 5% carbon dioxide for 24 hours, to which 100 μl of the test solution was added and cultured for further 48 hours. After the culture, 100 μl of the supernatant was removed and the absorbancy at 550 nm was measured in the same way as the colormetry using MTT in Experimental Example 1. The percent suppression was calculated by the following formula used as the index of cytotoxicity. [formula]

[12] = cytotoxicity to mouse L929 cells; format: cell-based; settings: mouse, l929 cells, read-out: Suppression
Experimental: as §3, §4

CCCCCCC(O)CCCCCC/C=C/CC(O)C(O)C(N)(CO)C(=O)O (stereo not drawn) [Example 6]
3H-thymidine uptake ([1]; 0.001 μg/ml): 16237 cpm | 3H-thymidine uptake ([1]; 0.01 μg/ml): 9276 cpm | 3H-thymidine uptake ([1]; 0.1 μg/ml): 3017 cpm | inhibition at 0.001 µg/mL ([1]; 0.001 μg/ml): 52.3% | inhibition at 0.01 µg/mL ([1]; 0.01 μg/ml): 85.4% | inhibition at 0.1 µg/mL ([1]; 0.1 μg/ml): 100% | cytotoxicity at 72 h ([2]; 0.1 μg/ml): 0.8% | cytotoxicity at 72 h ([2]; 1.0 μg/ml): 3.4% | cytotoxicity at 72 h ([2]; 10.0 μg/ml): 8.5% | Absorbancy ([3]; 0.1 μg/ml): 0.615 | Absorbancy ([3]; 1.0 μg/ml): 0.599 | Absorbancy ([3]; 10.0 μg/ml): 0.567 | Absorbancy ([4]; 0.1 μg/ml): 0.619 | Absorbancy ([4]; 1.0 μg/ml): 0.589 | Absorbancy ([4]; 10.0 μg/ml): 0.627 | Absorbancy ([5]; 0.1 μg/ml): 0.372 | Absorbancy ([5]; 1.0 μg/ml): 0.405 | Absorbancy ([5]; 10.0 μg/ml): 0.351 | Absorbancy ([6]; 0.1 μg/ml): 0.771 | Absorbancy ([6]; 1.0 μg/ml): 0.728 | Absorbancy ([6]; 10.0 μg/ml): 0.707 | Absorbancy ([7]; 0.1 μg/ml): 0.823 | Absorbancy ([7]; 1.0 μg/ml): 0.798 | Absorbancy ([7]; 10.0 μg/ml): 0.811 | Absorbancy ([8]; 0.1 μg/ml): 0.463 | Absorbancy ([8]; 1.0 μg/ml): 0.457 | Absorbancy ([8]; 10.0 μg/ml): 0.475 | cytotoxicity at 72 h ([9]; ccrf-cem cells, 0.1 μg/ml): 8% | cytotoxicity at 72 h ([9]; ccrf-cem cells, 1.0 μg/ml): 9.1% | cytotoxicity at 72 h ([9]; ccrf-cem cells, 10.0 μg/ml): 5.6% | cytotoxicity at 72 h ([9]; hl60 cells, 0.1 μg/ml): 16% | cytotoxicity at 72 h ([9]; hl60 cells, 1.0 μg/ml): 21% | cytotoxicity at 72 h ([9]; hl60 cells, 10.0 μg/ml): 17% | cytotoxicity at 72 h ([9]; k562 cells, 0.1 μg/ml): 1.6% | cytotoxicity at 72 h ([9]; k562 cells, 1.0 μg/ml): 4.5% | cytotoxicity at 72 h ([9]; k562 cells, 10.0 μg/ml): 3% | cytotoxicity at 72 h ([9]; kb cells, 0.1 μg/ml): 0% | cytotoxicity at 72 h ([9]; kb cells, 1.0 μg/ml): 0.3% | cytotoxicity at 72 h ([9]; kb cells, 10.0 μg/ml): 3.2% | cytotoxicity at 72 h ([9]; pc-14 cells, 0.1 μg/ml): 21.5% | cytotoxicity at 72 h ([9]; pc-14 cells, 1.0 μg/ml): 14.6% | cytotoxicity at 72 h ([9]; pc-14 cells, 10.0 μg/ml): 25.9% | cytotoxicity at 72 h ([9]; u937 cells, 0.1 μg/ml): 14% | cytotoxicity at 72 h ([9]; u937 cells, 1.0 μg/ml): 9.9% | cytotoxicity at 72 h ([9]; u937 cells, 10.0 μg/ml): 10.1% | Absorbancy ([10]; 0.1 μg/ml): 0.439 | Absorbancy ([10]; 1.0 μg/ml): 0.436 | Absorbancy ([10]; 10.0 μg/ml): 0.435 | Absorbancy ([11]; 0.1 μg/ml): 0.732 | Absorbancy ([11]; 1 μg/ml): 0.714 | Absorbancy ([11]; 10 μg/ml): 0.733 | cytotoxicity at 48 h ([12]; 0.1 μg/ml): 0% | cytotoxicity at 48 h ([12]; 1 μg/ml): 0% | cytotoxicity at 48 h ([12]; 10 μg/ml): 0%

CCCCCCC(=O)CCCCCCCCCC1OC(=O)C(N)(CO)C1O (stereo not drawn) [Example 7]
3H-thymidine uptake ([1]; 0.001 μg/ml): 24446 cpm | 3H-thymidine uptake ([1]; 0.01 μg/ml): 34378 cpm | 3H-thymidine uptake ([1]; 0.1 μg/ml): 3546 cpm | inhibition at 0.001 µg/mL ([1]; 0.001 μg/ml): 13.4% | inhibition at 0.01 µg/mL ([1]; 0.01 μg/ml): 0% | inhibition at 0.1 µg/mL ([1]; 0.1 μg/ml): 100% | cytotoxicity at 72 h ([2]; 0.1 μg/ml): 26.2% | cytotoxicity at 72 h ([2]; 1.0 μg/ml): 15.2% | cytotoxicity at 72 h ([2]; 10.0 μg/ml): 31% | Absorbancy ([3]; 0.1 μg/ml): 0.107 | Absorbancy ([3]; 1.0 μg/ml): 0.123 | Absorbancy ([3]; 10.0 μg/ml): 0.100 | Absorbancy ([4]; 0.1 μg/ml): 0.432 | Absorbancy ([4]; 1.0 μg/ml): 0.427 | Absorbancy ([4]; 10.0 μg/ml): 0.428 | Absorbancy ([5]; 0.1 μg/ml): 0.446 | Absorbancy ([5]; 1.0 μg/ml): 0.424 | Absorbancy ([5]; 10.0 μg/ml): 0.315 | Absorbancy ([6]; 0.1 μg/ml): 0.726 | Absorbancy ([6]; 1.0 μg/ml): 0.695 | Absorbancy ([6]; 10.0 μg/ml): 0.493 | Absorbancy ([7]; 0.1 μg/ml): 0.387 | Absorbancy ([7]; 1.0 μg/ml): 0.332 | Absorbancy ([7]; 10.0 μg/ml): 0.302 | Absorbancy ([8]; 0.1 μg/ml): 0.681 | Absorbancy ([8]; 1.0 μg/ml): 0.653 | Absorbancy ([8]; 10.0 μg/ml): 0.587 | cytotoxicity at 72 h ([9]; ccrf-cem cells, 0.1 μg/ml): 1.6% | cytotoxicity at 72 h ([9]; ccrf-cem cells, 1.0 μg/ml): 5.6% | cytotoxicity at 72 h ([9]; ccrf-cem cells, 10.0 μg/ml): 15.2% | cytotoxicity at 72 h ([9]; hl60 cells, 0.1 μg/ml): 17.2% | cytotoxicity at 72 h ([9]; hl60 cells, 1.0 μg/ml): 18.2% | cytotoxicity at 72 h ([9]; hl60 cells, 10.0 μg/ml): 18% | cytotoxicity at 72 h ([9]; k562 cells, 0.1 μg/ml): 0% | cytotoxicity at 72 h ([9]; k562 cells, 1.0 μg/ml): 13.8% | cytotoxicity at 72 h ([9]; k562 cells, 10.0 μg/ml): 21.6% | cytotoxicity at 72 h ([9]; kb cells, 0.1 μg/ml): 0.5% | cytotoxicity at 72 h ([9]; kb cells, 1.0 μg/ml): 4.8% | cytotoxicity at 72 h ([9]; kb cells, 10.0 μg/ml): 32.5% | cytotoxicity at 72 h ([9]; pc-14 cells, 0.1 μg/ml): 5.9% | cytotoxicity at 72 h ([9]; pc-14 cells, 1.0 μg/ml): 10.5% | cytotoxicity at 72 h ([9]; pc-14 cells, 10.0 μg/ml): 33.5% | cytotoxicity at 72 h ([9]; u937 cells, 0.1 μg/ml): 0% | cytotoxicity at 72 h ([9]; u937 cells, 1.0 μg/ml): 0% | cytotoxicity at 72 h ([9]; u937 cells, 10.0 μg/ml): 5.5% | Absorbancy ([10]; 0.1 μg/ml): 0.588 | Absorbancy ([10]; 1.0 μg/ml): 0.593 | Absorbancy ([10]; 10.0 μg/ml): 0.551 | Absorbancy ([11]; 0.1 μg/ml): 0.799 | Absorbancy ([11]; 1 μg/ml): 0.811 | Absorbancy ([11]; 10 μg/ml): 0.696 | cytotoxicity at 48 h ([12]; 0.1 μg/ml): 0% | cytotoxicity at 48 h ([12]; 1 μg/ml): 0% | cytotoxicity at 48 h ([12]; 10 μg/ml): 0%

Reference: patent US5219884A, “Immunosuppressant” (Taito Co., Ltd., priority 1990, dated 1993)
